Entries after “also recorded” stand apart in the source; their conditions may differ.
Columns and labels:
[1] = tested on: pooled iPSCs (two fluorescently labeled donors and one puromycin resistant donor); assay: Donor ratio change by drug selection monitored by eDNA (drop out assay); format: cell-based, human; conditions: puromycin containing media; fluorescence imaging and eDNA donor identification PCR
Excerpt: FIG. 22. Donor ratio change monitored by gDNA in the culture medium. To confirm the eDNA donor identification, Applicant monitored cell ratio change by drug selection. Two types of fluorescently labeled cells and puromycin resistant cells were used as a positive control.
(§1) In one aspect, a “Drop out assay” is disclosed. In this aspect, genomic DNA in environments (environmental DNA, or “eDNA”), a form of cell-free DNA (cfDNA), exists in the environment to determine biodiversity such as sea and soil. Detection of circulating tumor derived cfDNA is an evolving component of cancer precision medicine. […] Remarkably, when applied into pooled stem cell culture, quantitative detection of respective donor correlates with the cell ratio in culture. Therefore, Applicant concluded eDNA-based noninvasive donor identification method is effective decoding strategy for pooled stem cell culture by eDNA in culture supernatant. PCR of eDNA in culture supernatant can be carried out using donor-specific SNP primers. Each SNP primer may be standardized, and the donor ratio of the iPSC pool can be estimated using eDNA contained in the culture supernatant (see FIG. 19). As a result, the cell ratio may be successfully determined by PCR of eDNA in the medium (see FIG. 20). […] In order to confirm the sensitivity of eDNA donor identification, Applicant monitored cell ratio change by drug selection. […]

[2] = tested on: fat-treated hepatocytes prepared from 11 iPSCs pool; assay: Drop-out assay using induced hepatocytes treated with oleic acid and troglitazone; format: cell-based, human; conditions: eDNA based drop-out assay; oleic acid treated hepatocyte pool from eleven donors
Method: FIG. 23. Drop-out assay using induced hepatocytes treated with oleic acid and troglitazone. Drug screening assays for fat accumulation and drug treatment were performed using hepatocytes prepared from iPSC pools.
as §1

| SMILES | fate of non-resistant iPSCs under drug selection [1] | sensitivity to drug induced hepatotoxicity, high fat accumulation risk donor cells vs healthy donor derived cells [2] |
| --- | --- | --- |
| COc1ccc(C[C@H](N)C(=O)N[C@H]2[C@@H](O)[C@H](n3cnc4c(N(C)C)ncnc43)O[C@@H]2CO)cc1 [puromycin] | non-resistant iPSCs were disappeared on the second day of treatment; also recorded: two other donors died due to puromycin toxicity | – |
| Cc1c(C)c2c(c(C)c1O)CCC(C)(COc1ccc(CC3SC(=O)NC3=O)cc1)O2 (centres unmarked) [troglitazone] | – | significantly more sensitive |

Source: patent US12281334B2, “Multi donor stem cell compositions and methods of making same” (Children's Hospital Medical Center, priority 2017, dated 2025)
